# Earlier results as cited in patent publication US20220347399A1, “SYSTEMS AND METHODS OF USING AN ULTRASONIC FOGGER TO DISTRIBUTE AN ANTISEPTIC SOLUTION” (Wonder Spray, LLC, priority 2021, published 2022).
# Assays:
# E. coli [1] = conditions: 50 mM (2.6 ppm) HOCl, within 5 minutes
# E. coli [2] = conditions: 50 mM (2.6 ppm) HOCl, within 5 minutes; remark: listed apart in the source
# f2 RNA = conditions: f2 capsid proteins could still adsorb to the host
# [3] = inhalation of vaporized HOCl
compound,measurement,setting,value
"OCl [HOCl, Hypochlorous acid]",inhibition of the growth of E. coli,E. coli [1],completely inhibited
same,inhibition of DNA synthesis,E. coli [2],ninety-six
same,inactivation of naked f2 RNA versus RNA in intact phage,f2 RNA,inactivated naked f2 RNA at the same rate as RNA in intact phage
same,adverse effects on inhaling the vaporized form,[3],no adverse effects
